Test results reported in US11453683B1, “KRas G12D inhibitors” (Mirati Therapeutics, Inc., priority 2019, dated 2022).

System: KRas G12D-mediated phosphorylation of ERK
Test: Inhibition of KRas G12D-mediated phosphorylation of ERK in AGS cells
Assay type: cell-based
Settings: Homo sapiens; AGS cells expressing G12D, 3 hours, phospho-ERK normalized to GAPDH
Method in brief: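 In-cell Western: p-ERK Thr202/Tyr204 signal over GAPDH, as % of DMSO control, with IC50 from a 4-parameter curve. AGS cells seeded 40,000/well for 12-14 h, exposed to compound 3 h at 0.5% DMSO final, then formaldehyde-fixed and methanol-permeabilized.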

Row | SMILES | IC50
1 | Oc1cc(-c2ncc3c(N4C[C@H]5CC[C@@H](C4)N5)nc(OCCCN4CCOCC4)nc3c2F)c2ccccc2c1 [Example 22, 4-(4-((1R,5S)-3,8-diazabicyclo[3.2.1]octan-3-yl)-8-fluoro-2-(3-morpholinopropoxy)pyrido[4,3-d]pyrimidin-7-yl)naphthalen-2-ol] | 1890 nM
2 | Oc1cc(-c2ncc3c(N4C[C@H]5CC[C@@H](C4)N5)nc(OC[C@@]45CCCN4C[C@H](F)C5)nc3c2F)c2c(Cl)cccc2c1 [Example 251, 4-(4-((1R,5S)-3,8-diazabicyclo[3.2.1]octan-3-yl)-8-fluoro-2-(((2R,7aS)-2-fluorohexahydro-1H-pyrrolizin-7a-yl)methoxy)pyrido[4,3-d]pyrimidin-7-yl)-5-chloronaphthalen-2-ol] | 10.3 nM
3 | CCn1ccc2cccc(-c3ncc4c(N5C[C@H]6CC[C@@H](C5)N6)nc(OCC56CCCN5CCC6)nc4c3F)c21 [Example 427, 4-((1R,5S)-3,8-diazabicyclo[3.2.1]octan-3-yl)-7-(1-ethyl-1H-indol-7-yl)-8-fluoro-2-((hexahydro-1H-pyrrolizin-7a-yl)methoxy)pyrido[4,3-d]pyrimidine] | 1980 nM
4 | CC#Cc1cccc2cccc(-c3ncc4c(N5C[C@H]6CC[C@@H](C5)N6)nc(OCC56CCCN5CCC6)nc4c3F)c12 [Example 195, 4-((1R,5S)-3,8-diazabicyclo[3.2.1]octan-3-yl)-8-fluoro-7-(8-(prop-1-yn-1-yl)naphthalen-1-yl)-2-((tetrahydro-1H-pyrrolizin-7a(5H)-yl)methoxy)pyrido[4,3-d]pyrimidine] | 2460 nM
5 | CCc1c(F)ccc2cc(O)cc(-c3ncc4c(N5C[C@H]6CC[C@@H](C5)N6)nc(OCC56CCCN5CCC6)nc4c3F)c12 [Example 314, 4-(4-((1R,5S)-3,8-diazabicyclo[3.2.1]octan-3-yl)-8-fluoro-2-((hexahydro-1H-pyrrolizin-7a-yl)methoxy)pyrido[4,3-d]pyrimidin-7-yl)-5-ethyl-6-fluoronaphthalen-2-ol] | 3.7 nM
6 | C#Cc1c(F)ccc2cccc(-c3ncc4c(N5C[C@H]6CC[C@@H](C5)N6)nc(OC[C@]56CCCN5[C@@H](COC(=O)N(C)C)CC6)nc4c3F)c12 [Example 439, ((3R,7aR)-7a-(((4-((1R,5S)-3,8-diazabicyclo[3.2.1]octan-3-yl)-7-(8-ethynyl-7-fluoronaphthalen-1-yl)-8-fluoropyrido[4,3-d]pyrimidin-2-yl)oxy)methyl)hexahydro-1H-pyrrolizin-3-yl)methyl dimethylcarbamate] | 12.8 nM
7 | CC(C)N1CCC[C@H]1COc1nc(N2C[C@H]3CC[C@@H](C2)N3)c2cnc(-c3cccc4cccc(Cl)c34)c(F)c2n1 [Example 29, 4-((R,5S)-3,8-diazabicyclo[3.2.1]octan-3-yl)-7-(8-chloronaphthalen-1-yl)-8-fluoro-2-(((S)-1-isopropylpyrrolidin-2-yl)methoxy)pyrido[4,3-d]pyrimidine] | 13600 nM
8 | Fc1c(-c2cccc(Cl)c2C2CC2)ncc2c(N3CC4CCC(C3)N4)nc(OCC34CCCN3C[C@H](F)C4)nc12 (mixture of isomers) [Example 342, 4-((1R,5S)-3,8-diazabicyclo[3.2.1]octan-3-yl)-7-(3-chloro-2-cyclopropylphenyl)-8-fluoro-2-((2-fluorotetrahydro-1H-pyrrolizin-7a(5H)-yl)methoxy)pyrido[4,3-d]pyrimidine] | 1000 nM
9 | COCCCN1CCC(Oc2nc(N3C[C@H]4CC[C@@H](C3)N4)c3cnc(-c4cc(O)cc5ccccc45)c(F)c3n2)CC1 [Example 41, 4-(4-((1R,5S)-3,8-diazabicyclo[3.2.1]octan-3-yl)-8-fluoro-2-((1-(3-methoxypropyl)piperidin-4-yl)oxy)pyrido[4,3-d]pyrimidin-7-yl)naphthalen-2-ol] | 6650 nM
10 | COCCO[C@@H]1C[C@@H](COc2nc(N3C[C@H]4CC[C@@H](C3)N4)c3cnc(-c4cccc5cccc(Cl)c45)c(F)c3n2)N(C)C1 [Example 202, 4-((1R,5S)-3,8-diazabicyclo[3.2.1]octan-3-yl)-7-(8-chloronaphthalen-1-yl)-8-fluoro-2-(((2S,4R)-4-(2-methoxyethoxy)-1-methylpyrrolidin-2-yl)methoxy)pyrido[4,3-d]pyrimidine] | 10200 nM
11 | Oc1cc(-c2ncc3c(N4C[C@H]5CC[C@@H](C4)N5)nc(OCC4CCCC4)nc3c2F)c2ccccc2c1 [Example 73, 4-(4-((1R,5S)-3,8-diazabicyclo[3.2.1]octan-3-yl)-2-(cyclopentylmethoxy)-8-fluoropyrido[4,3-d]pyrimidin-7-yl)naphthalen-2-ol] | > 5560 nM
12 | COC1CN2CCCC2(COc2nc(N3CC4CCC(C3)N4)c3cnc(-c4cc(O)cc5cccc(F)c45)c(F)c3n2)C1 (mixture of isomers) [Example 388, 4-(4-((1R,5S)-3,8-diazabicyclo[3.2.1]octan-3-yl)-8-fluoro-2-((2-methoxytetrahydro-1H-pyrrolizin-7a(5H)-yl)methoxy)pyrido[4,3-d]pyrimidin-7-yl)-5-fluoronaphthalen-2-ol (mixture of trans diastereomers)] | 40.2 nM
13 | CN(C)C(=O)OC[C@H]1CC[C@@]2(COc3nc(N4CC5CCC(C4)N5)c4cnc(-c5cccc6cccc(Cl)c56)c(F)c4n3)CCCN12 [Example 405, (7a-(((4-(3,8-diazabicyclo[3.2.1]octan-3-yl)-7-(8-chloronaphthalen-1-yl)-8-fluoropyrido[4,3-d]pyrimidin-2-yl)oxy)methyl)hexahydro-1H-pyrrolizin-3-yl)methyl dimethylcarbamate] | 297 nM
14 | Oc1cc(-c2ncc3c(N4C[C@H]5CC[C@@H](C4)N5)nc(OC[C@@]45CCCN4C[C@H](F)C5)nc3c2F)c2c(F)c(F)ccc2c1 [Example 246, 4-(4-((1R,5S)-3,8-diazabicyclo[3.2.1]octan-3-yl)-8-fluoro-2-(((2R,7aS)-2-fluorohexahydro-1H-pyrrolizin-7a-yl)methoxy)pyrido[4,3-d]pyrimidin-7-yl)-5,6-difluoronaphthalen-2-ol] | 1 nM
15 | Nc1nc(N2CC3CCC(C2)N3)c2cnc(-c3cc(O)cc4ccccc34)c(F)c2n1 [Example 182, 4-[2-amino-4-(3,8-diazabicyclo[3.2.1]octan-3-yl)-8-fluoro-pyrido[4,3-d]pyrimidin-7-yl]naphthalen-2-ol] | 13500 nM
16 | CN1CCC[C@H]1COc1nc(N2C[C@H]3CC[C@@H](C2)N3)c2cnc(-c3cccc4cccc(Cl)c34)c(F)c2n1 [Example 132, 4-((1R,5S)-3,8-diazabicyclo[3.2.1]octan-3-yl)-7-(8-chloronaphthalen-1-yl)-8-fluoro-2-(((S)-1-methylpyrrolidin-2-yl)methoxy)pyrido[4,3-d]pyrimidine] | 2560 nM
17 | CCc1c(Cl)cccc1-c1ncc2c(N3C[C@H]4CC[C@@H](C3)N4)nc(OCC34CCCN3CCC4)nc2c1F [Example 312, 4-((1R,5S)-3,8-diazabicyclo[3.2.1]octan-3-yl)-7-(3-chloro-2-ethylphenyl)-8-fluoro-2-((hexahydro-1H-pyrrolizin-7a-yl)methoxy)pyrido[4,3-d]pyrimidine] | 1880 nM
18 | Cn1cncc1CCOc1nc(N2C[C@H]3CC[C@@H](C2)N3)c2cnc(-c3cc(O)cc4ccccc34)c(F)c2n1 [Example 110, 4-(4-((1R,5S)-3,8-diazabicyclo[3.2.1]octan-3-yl)-8-fluoro-2-(2-(1-methyl-1H-imidazol-5-yl)ethoxy)pyrido[4,3-d]pyrimidin-7-yl)naphthalen-2-ol] | > 16700 nM
19 | Fc1c(-c2cccc3cccc(Cl)c23)ncc2c(N3C[C@H]4CC[C@@H](C3)N4)nc(OCC34CCCN3CCC4)nc12 [Example 45, 4-((1R,5S)-3,8-diazabicyclo[3.2.1]octan-3-yl)-7-(8-chloronaphthalen-1-yl)-8-fluoro-2-((tetrahydro-1H-pyrrolizin-7a(5H)-yl)methoxy)pyrido[4,3-d]pyrimidine] | 840 nM
20 | CCc1c(F)ccc2cccc(-c3ncc4c(N5C[C@H]6CC[C@@H](C5)N6)nc(OCC56CCCN5CCC6)nc4c3F)c12 [Example 426, 4-((1R,5S)-3,8-diazabicyclo[3.2.1]octan-3-yl)-7-(8-ethyl-7-fluoronaphthalen-1-yl)-8-fluoro-2-((hexahydro-1H-pyrrolizin-7a-yl)methoxy)pyrido[4,3-d]pyrimidine] | 228 nM
21 | OC[C@@H]1CCN1c1nc(N2C[C@H]3CC[C@@H](C2)N3)c2cnc(-c3cc(O)cc4ccccc34)c(F)c2n1 [Example 121, 4-(4-((1R,5S)-3,8-diazabicyclo[3.2.1]octan-3-yl)-8-fluoro-2-((S)-2-(hydroxymethyl)azetidin-1-yl)pyrido[4,3-d]pyrimidin-7-yl)naphthalen-2-ol 2,2,2-trifluoroacetate] | 4080 nM
22 | Oc1cc(-c2ncc3c(N4CC5CCC(C4)N5)nc(OCC45CCCN4C(CF)CC5)nc3c2F)c2ccccc2c1 (mixture of isomers) [Example 384, 4-(4-((1R,5S)-3,8-diazabicyclo[3.2.1]octan-3-yl)-8-fluoro-2-((3-(fluoromethyl)tetrahydro-1H-pyrrolizin-7a(5H)-yl)methoxy)pyrido[4,3-d]pyrimidin-7-yl)naphthalen-2-ol (mixture of isomers)] | 398 nM
23 | FCCc1cccc2cccc(-c3ncc4c(N5C[C@H]6CC[C@@H](C5)N6)nc(OCC56CCCN5CCC6)nc4c3F)c12 [Example 248, 4-((1R,5S)-3,8-diazabicyclo[3.2.1]octan-3-yl)-8-fluoro-7-(8-(2-fluoroethyl)naphthalen-1-yl)-2-((tetrahydro-1H-pyrrolizin-7a(5H)-yl)methoxy)pyrido[4,3-d]pyrimidine] | 1080 nM
24 | Oc1cc(-c2ncc3c(N4C[C@H]5CC[C@@H](C4)N5)nc(OCC45CCCN4CCC5)nc3c2F)c2ccccc2c1 [Example 109, 4-(4-((1R,5S)-3,8-diazabicyclo[3.2.1]octan-3-yl)-8-fluoro-2-((tetrahydro-1H-pyrrolizin-7a(5H)-yl)methoxy)pyrido[4,3-d]pyrimidin-7-yl)naphthalen-2-ol bis(2,2,2-trifluoroacetate)] | 330 nM
25 | Oc1cc(-c2ncc3c(N4C[C@H]5CC[C@@H](C4)N5)nc(OC[C@@H]4CC5CCN4C5)nc3c2F)c2ccccc2c1 [Example 40, 4-(2-(((2S)-1-azabicyclo[2.2.1]heptan-2-yl)methoxy)-4-((1R,5S)-3,8-diazabicyclo[3.2.1]octan-3-yl)-8-fluoropyrido[4,3-d]pyrimidin-7-yl)naphthalen-2-ol] | 4240 nM
